Results published in ChEMBL document CHEMBL1145737 (Bioorg Med Chem Lett, 2003).
≈ marks a conversion by molar mass, not a printed value.

Key:
[1] = biological target: Neuraminidase (Influenza A virus (A/Puerto Rico/8/1934(H1N1)), UniProt P03468); assay: Inhibitory concentration against influenza A virus sialidase A/PR/8/34
[2] = tested on: MDCK; assay: Inhibitory concentration against Influenza A virus (A/Yamagata/32/89) MDCK cells determined by plaque reduction assay; assay type: functional, cell-based; details: Canis lupus familiaris
[3] = tested on: Mus musculus; assay: Median survival time was determined after oral administration (10 umol/kg) once daily for 5 days in mouse infected with influenza virus; assay type: functional

Neuraminidase (Influenza A virus (A/Puerto Rico/8/1934(H1N1)), UniProt P03468), sequence (P03468 whole entry): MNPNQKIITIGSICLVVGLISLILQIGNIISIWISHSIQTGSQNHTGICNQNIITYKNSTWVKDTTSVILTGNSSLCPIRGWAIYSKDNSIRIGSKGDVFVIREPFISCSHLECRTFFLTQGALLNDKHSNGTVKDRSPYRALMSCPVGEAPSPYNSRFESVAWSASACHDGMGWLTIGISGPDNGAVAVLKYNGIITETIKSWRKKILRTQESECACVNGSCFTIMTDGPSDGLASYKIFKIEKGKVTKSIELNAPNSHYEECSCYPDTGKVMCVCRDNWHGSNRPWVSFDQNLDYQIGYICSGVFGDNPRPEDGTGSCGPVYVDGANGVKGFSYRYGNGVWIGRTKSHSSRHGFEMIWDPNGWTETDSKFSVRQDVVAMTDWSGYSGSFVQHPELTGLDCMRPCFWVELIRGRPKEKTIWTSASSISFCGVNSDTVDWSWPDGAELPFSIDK

| Structure (SMILES) | IC50 [1] | IC50 [2] | Survival time [3] |
| --- | --- | --- | --- |
| CC(=O)N[C@H]1[C@H]([C@H]2C[C@H](O)[C@H](O)CO2)OC(C(=O)O)=C[C@@H]1NC(=N)N | 6.84 nM | > 100 ng/mL |  |
| CC(=O)N[C@H]1[C@H]([C@@H]2OCCC[C@@H](O)[C@H]2O)OC(C(=O)O)=C[C@@H]1NC(=N)N | 33.3 nM | 2.2 ng/mL (≈ 5.91 nM) |  |
| CC(=O)N[C@H]1[C@H]([C@@H]2C[C@H](O)[C@H](O)CO2)OC(C(=O)O)=C[C@@H]1NC(=N)N | 1030 nM | > 100 ng/mL |  |
| CC(=O)N[C@H]1[C@H]([C@H]2CCCCO2)OC(C(=O)O)=C[C@@H]1NC(=N)N | 735 nM | > 100 ng/mL |  |
| CC(=O)N[C@H]1[C@H]([C@H]2C[C@@H](O)[C@@H](O)CO2)OC(C(=O)O)=C[C@@H]1NC(=N)N | 2780 nM | > 100 ng/mL |  |
| CC(=O)N[C@H]1[C@H]([C@@H]2OC[C@@H](O)[C@H]2O)OC(C(=O)O)=C[C@@H]1NC(=N)N | 17.7 nM | 1.4 ng/mL (≈ 4.07 nM) |  |
| CC(=O)N[C@H]1[C@H]([C@@H]2OCC(F)(F)[C@@H](O)[C@H]2O)OC(C(=O)O)=C[C@@H]1NC(=N)N | 27.1 nM | 1.4 ng/mL (≈ 3.55 nM) |  |
| CC(=O)N[C@H]1[C@H]([C@@H]2OCC[C@@H](O)[C@H]2O)OC(C(=O)O)=C[C@@H]1NC(=N)N | 28.7 nM | 0.6 ng/mL (≈ 1.67 nM) | 10 days |
| CC(=O)N[C@H]1[C@H]([C@@H]2C[C@@H](O)[C@@H](O)CO2)OC(C(=O)O)=C[C@@H]1NC(=N)N | 10000 nM | > 100 ng/mL |  |
| CC(=O)N[C@H]1[C@H]([C@H](O)[C@H](O)CO)OC(C(=O)O)=C[C@@H]1NC(=N)N [ZANAMIVIR] |  | 6.6 ng/mL (≈ 19.9 nM) |  |
